According to patent US20080138390A1, “Transdermal Delivery System For Use With Basic Permeation Enhancers” (priority 2004, published 2008):

How the values were obtained:
[1] = In vitro skin permeation of diclofenac sodium from transdermal systems, Franz diffusion cells; assay type: in vitro ADME, human; settings: for cumulative amount of diclofenac that permeated through the skin: human cadaver skin, 32° C., 24-hour study
[2] = In vitro skin permeation of testosterone from transdermal systems, Franz diffusion cells; settings: for cumulative amount of testosterone that permeated through the skin: human cadaver skin, receiver 30% NMP
Protocol: An in vitro skin permeation study was conducted using two testosterone transdermal delivery systems.
The backing/active agent-in-adhesive film was then pressed onto the skin with the adhesive side facing the stratum corneum. […] Three diffusion cells were used for each formulation. The receiver solution was 30% N-methyl pyrrolidone (NMP) in 70% DI H2O (v/v). The entire receiver solution was collected and replaced with fresh 30% NMP solution at each time point. The receiver solution collected was analyzed by HPLC to determine the concentration of testosterone. The cumulative amount of testosterone that permeated across the human cadaver skin was calculated using the measured testosterone concentrations in the receiver solutions, and the results were plotted versus time (FIG. 3).

SMILES	cumulative amount of diclofenac that permeated through the skin ([1]; PVPP powder added (Formulation B by Table 1))	cumulative amount of diclofenac permeated relative to absence of the powder ([1]; PVPP powder added vs no PVPP powder)	cumulative amount of diclofenac that permeated through the skin ([1]; PVPP powder in combination with polyethylene oxide (Formulation C by Table 1))	cumulative amount of diclofenac that permeated through the skin ([1]; no PVPP powder added (Formulation D by Table 1))	cumulative amount of diclofenac that permeated through the skin ([1]; powdered starch, poly(acrylamide-acrylic acid) sodium salt instead of PVPP (Formulation A by Table 1))	cumulative amount of testosterone that permeated through the skin ([2]; 0.75 g PVPP powder added (Formulation J by Table 5))	cumulative amount of testosterone permeated relative to absence of the powder ([2]; 0.75 g PVPP powder vs no PVPP powder)	cumulative amount of testosterone that permeated through the skin ([2]; no PVPP powder added (Formulation I by Table 5))
O=C(O)Cc1ccccc1Nc1c(Cl)cccc1Cl [diclofenac, diclofenac sodium]	2.41 mg/cm^2	more than five times	2.05 mg/cm^2	0.48 mg/cm^2	1.03 mg/cm^2	–	–	–
C[C@]12CC[C@H]3[C@@H](CCC4=CC(=O)CC[C@@]43C)[C@@H]1CC[C@@H]2O [testosterone]	–	–	–	–	–	0.70 mg/cm^2	almost twice	0.40 mg/cm^2
